Data on five compounds can be found in US11214538B2, “Farnesoid X receptor agonists and uses thereof” (Metacrine, Inc., priority 2015, dated 2022).

The target in assay [1] is T1, hFXR (Homo sapiens, UniProt Q96RI1).
T1 construct: expressed in transfected cells; host or cells: CV-1 cells
T1 sequence (Q96RI1 1-486): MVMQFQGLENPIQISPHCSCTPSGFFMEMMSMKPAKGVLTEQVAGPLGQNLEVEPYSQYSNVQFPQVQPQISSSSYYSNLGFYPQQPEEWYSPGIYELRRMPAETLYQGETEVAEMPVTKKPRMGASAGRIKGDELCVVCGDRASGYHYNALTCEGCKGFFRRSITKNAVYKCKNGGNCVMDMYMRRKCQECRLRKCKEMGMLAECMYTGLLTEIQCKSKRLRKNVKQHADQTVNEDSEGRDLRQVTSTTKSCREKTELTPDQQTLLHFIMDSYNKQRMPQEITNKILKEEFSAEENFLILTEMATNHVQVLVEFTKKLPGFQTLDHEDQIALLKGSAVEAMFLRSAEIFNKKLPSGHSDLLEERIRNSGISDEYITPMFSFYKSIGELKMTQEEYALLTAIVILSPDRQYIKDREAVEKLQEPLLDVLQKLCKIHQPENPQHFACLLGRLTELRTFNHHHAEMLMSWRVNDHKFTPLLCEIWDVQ
T1 sequence (P19793 1-462 partner): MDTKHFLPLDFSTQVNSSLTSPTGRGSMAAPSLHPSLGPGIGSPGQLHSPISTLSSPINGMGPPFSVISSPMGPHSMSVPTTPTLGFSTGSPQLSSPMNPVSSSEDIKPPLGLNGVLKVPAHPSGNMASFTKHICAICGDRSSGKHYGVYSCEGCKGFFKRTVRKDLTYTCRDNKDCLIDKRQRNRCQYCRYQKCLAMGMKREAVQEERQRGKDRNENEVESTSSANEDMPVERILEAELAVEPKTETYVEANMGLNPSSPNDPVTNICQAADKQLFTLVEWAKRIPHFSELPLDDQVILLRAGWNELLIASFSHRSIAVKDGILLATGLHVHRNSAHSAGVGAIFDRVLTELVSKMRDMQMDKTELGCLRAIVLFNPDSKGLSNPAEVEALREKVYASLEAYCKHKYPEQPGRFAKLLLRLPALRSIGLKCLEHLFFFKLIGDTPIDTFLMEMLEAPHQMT
The assay is described as follows: In Vitro FXR Assay (PGL3), luciferase reporter in transfected CV-1 cells. It counts as cell-based. The following applies: CV-1 cells transfected with hFXR, hRXR, PGL3-ECRE*6-luc; 18 hrs incubation; luminescence. The procedure:
Example B-1: In Vitro FXR Assay (PGL3)
CV-1 cells were seeded at a density of 2,000,000 cells in a T175 flask with DMEM+10% charcoal double-stripped FBS and incubated at 37° C. in a 5% CO2 for 18 h (O/N).
After 18 h of incubation, the medium in the T175 flask was changed with fresh DMEM+10% charcoal super-stripped serum.
To prepare the transfection reaction mixture, the transfection reagent (X-tremeGENE HP from Roche, Cat #06 366 236 001) was added in to a 1.5 mL microcentrifuge tube labelled “A” at a ratio of 1:3 (DNA in g: transfection reagent in μL). OptiMEM medium (Life Technologies, Cat #31985-062) was added accordingly to provide a total volume of 1 mL. The transfection reaction mixture was then briefly vortexed and incubated at room temperature for 5 minutes.
In a separate 1.5 mL microcentrifuge tube labelled “B”, 100 μL OptiMEM and plasmids XPD90Gal pCMXhFXRfl, pCMXhRXRfl+PGL3-ECRE*6-luc+CMX-YFP in the ratio 2 g: 2 g:18 g:3 g were added. This microcentrifuge tube “B” was then briefly vortexed and incubated at room temperature for 5 minutes.
The total volume in tube labelled “A” was then transferred in to tube labelled “B.” The mixture was then briefly vortexed and the transfection:DNA complex was then incubated for about 15-20 minutes at room temperature.
Following incubation, the transfection reagent/DNA mixture complex was then added to cells in the T175 flask and the cells were incubated at […] (O/N) at 37° C. in 5% CO2.
In a 96 well plate, a half logarithmic serial dilution was prepared. OptiMEM was used as the diluent. Using any of one of the compounds described herein, a compound stock solution of 10 mM was prepared. An initial 1:100 dilution was made into the first well for a final concentration of 100 μM. The final concentrations in the 96-well plate was prepared by using a multichannel pipette to transfer 5 μL of the diluted compound to 384-well plate in quadruplicate.
Cells in T175 flask were trypsinized and cells were resuspending in 40 mL phenol red free DMEM+10% charcoal super-stripped FBS. Typically, one T175 flask was sufficient to seed two 384 well plates. CV-1 cells were seeded at 45 μL cell suspension/well using a multichannel pipet or a 384 multidrop dispenser. The cells were then incubated for 18 hrs, overnight.
After removing the plates from the incubator, the medium was flicked out of plate and 384 well plate was turned upside down onto paper towel. The remaining medium was gently tapped out. 15 μL lysis buffer was then added to each well using a multichannel pipet or a 384 well multi-drop dispenser. After incubation for 10 minutes at room temperature on shaker, 30 μL Luciferase buffer was added to each well. Luminescence counts were taken immediately using the Perkin Elmer Envision.
The ability of the compounds disclosed herein to […] FXR activity was quantified and the respective EC50 value was determined. Fex=fexaramine.
(In general: Reporter assays use an easily measured gene product as a stand-in for the process of interest.)

Assay [2] concerns the target T1, hFXR. The experiment in a line: In Vitro FXR Assay (TK), luciferase reporter in transfected CV-1 cells. It counts as cell-based. The conditions noted are these: CV-1 cells transfected with hFXR, hRXR, TK-ECRE-luc; 18 hrs incubation; luminescence; compounds with a maximum efficacy of <25% of the Fexaramine control classified as '+'. On the procedure:
Example B-2: In Vitro FXR Assay (TK)
CV-1 cells were seeded at a density of 2,000,000 cells in a T175 flask with DMEM+10% charcoal double-stripped FBS and incubated at 37° C. in 5% CO2 for 18 h (O/N).
After 18 h of incubation, the medium in the T175 flask was changed with fresh DMEM+10% charcoal super-stripped serum. In a polypropylene tube, 2500 μL OptiMEM (Life Technologies, Cat #31985-062) was combined with expression plasmids for hFXR, hRXR, TK-ECRE-luc and pCMX-YFP. The tube was then briefly vortexed and incubated at room temperature for 5 minutes. Transfection reagent (X-tremeGENE HP from Roche, Cat #06 366 236 001) was added to the OptiMEM/plasmid mixture vortexed and incubated at room temperature for 20 minutes. Following incubation, the transfection reagent/DNA mixture complex was added to cells in the T175 flask and the cells were incubated at 37° C. in 5% CO2 for 18 h (O/N).
Compounds were serially diluted in DMSO and added to transfected CV-1 cells. The cells were then incubated for 18 hrs. The next day cells were lysed and examined for luminescence.

Molecules are shown by their SMILES. Where only a bound is given, the exact number is not on record here.

One may read the EC50 as the midpoint of the concentration-response curve. The low end stands for an effect from little substance, the high end for a need for much substance. In the case of `CN(C)C(=O)/C=C/c1cccc(N(Cc2ccc(-c3ccc(N(C)C)cc3)cc2)C(=O)C2CCCCC2)c1` [Compound 13, (E)-N-(3-(3-(Dimethylamino)-3-oxoprop-1-en-1-yl)phenyl)-N-((4′-(dimethylamino)-[1,1′-biphenyl]-4-yl)methyl)cyclohexanecarboxamide], the “Cmpd/Fex (ratio of the EC50 for the test compound relative to the EC50 of the Fexaramine control)” value at hFXR [1] is “+ (‘+’ means Cmpd/Fex >100)”. Further, the EC50 on hFXR [2] is not above 3 µM.
For `CN(C)c1ccc(-c2ccc(CN(C(=O)C3CCCCC3)c3cccc(/C=C/c4ncco4)c3)cc2)cc1` [Compound 14, (E)-N-((4′-(Dimethylamino)-[1,1′-biphenyl]-4-yl)methyl)-N-(3-(2-(oxazol-2-yl)vinyl)phenyl)cyclohexanecarboxamide], on hFXR [1], the “Cmpd/Fex (ratio of the EC50 for the test compound relative to the EC50 of the Fexaramine control)” value is given as “+++ (‘+++’ means Cmpd/Fex <10)”. Further, the EC50 at hFXR [2] was not above 3 µM.
Take `O=C(C1CCCCC1)N(Cc1ccc(-c2ccc(F)cc2)cc1)c1cccc(-c2ccccc2)c1` [Compound 15, N-([1,1′-Biphenyl]-3-yl)-N-((4′-fluoro-[1,1′-biphenyl]-4-yl)methyl)cyclohexanecarboxamide]: the “Cmpd/Fex (ratio of the EC50 for the test compound relative to the EC50 of the Fexaramine control)” value on hFXR [1] is “+ (‘+’ means Cmpd/Fex >100)”. At hFXR [2], this compound yielded an EC50 not above 3 µM.
In the same order, the values of `C/C=C/c1cccc(N(Cc2ccc(-c3ccc(N(C)C)cc3)cc2)C(=O)C2CCCCC2)c1` [Compound 16, (E)-N-((4′-(Dimethylamino)-[1,1′-biphenyl]-4-yl)methyl)-N-(3-(prop-1-en-1-yl)phenyl)cyclohexanecarboxamide] are “++ (‘++’ means Cmpd/Fex >10 & <100)” and 3 to 10 µM.
As for `CN(C)c1ccc(-c2ccc(CN(C(=O)C3CCCCC3)c3cccc(-c4ccccc4)c3)cc2)cc1` [Compound 18, N-([1,1′-Biphenyl]-3-yl)-N-((4′-(dimethylamino)-[1,1′-biphenyl]-4-yl)methyl)cyclohexanecarboxamide], the “Cmpd/Fex (ratio of the EC50 for the test compound relative to the EC50 of the Fexaramine control)” value at hFXR [1] was “+ (‘+’ means Cmpd/Fex >100)”. At hFXR [2], this compound came in with an EC50 of 3 to 10 µM.
